One data set deals with 4175-Luc+ tumors. Nature of the data set: Tumor growth inhibition. The following applies: 5-day i.p. regimen from day 3 after inoculation; MN58b 2 mg/kg/day, JAS239 4 mg/kg/day. The class given is in vivo, mouse. On the procedure: All animal studies were approved by the Institutional Animal Care and Use Committee of the University of Pennsylvania. Six week old female athymic nude Foxn1^nu/nu mice (National Cancer Institute) were housed in a temperature-controlled environment with 12 h light/dark cycle. Anesthesia was induced using 2% isoflurane in oxygen for all experiments. For MCF7 tumors, mice were supplemented with 60-day release 0.36 mg 17β-estradiol tablets (Innovative Research of America) using a trochar in the nape of the neck. After 1 week, 4 × 10^6 cells in Matrigel (BD Biosciences) were inoculated into the left (CK+) and contralateral (EV) mammary fat pads. Subcutaneous xenografts, including those analyzed in MRI/MRS studies, were grown on the shoulder to allow for cloaking of the kidneys during optical imaging studies. Tumor growth was determined via caliper measurement of three orthogonal dimensions and volume calculated as length * width * height * π/6.
A cohort of 15 mice was inoculated with 4175-Luc+ tumors. Beginning 3 days post-inoculation, animals received a 100-μL i.p. injection of either control DMSO/saline, 2 mg/kg MN58b or 4 mg/kg JAS239 in DMSO/saline daily for 5 days. Tumor volumes were assessed by caliper measurement.

For another data set, the target named is ChoKα (Homo sapiens, UniProt P35790). Nature of the data set: Confocal microscopy colocalization of JAS239 with anti-ChoKα antibody in fixed MDA-MB-231 cells. The data set is classed as cell-based. Details: endogenous in cells; host or cells: MDA-MB-231. The following applies: cells pre-treated with ChoKα antibody. The method, then: MDA-MB-231 cells plated on sterile glass coverslips were fixed in 4% paraformaldehyde, permeabilized in 0.2% Triton X-100, and blocked in 1% BSA. Staining with 0 or 200 μM JAS239 was performed 30 min prior or 1 h after application of rabbit anti-human ChoKα antibody (ab38290; Abcam, 1:1000 dilution). Coverslips were then stained with goat anti-rabbit antibody conjugated to Texas Red (Vector Laboratories; TI-1000, 1:500), dehydrated, and mounted with VectaShield (Vector Laboratories). Confocal micrographs were acquired on a Zeiss LSM 510META NLC using excitation (Ex.) 543 nm and emission (Em.) 565–615 nm for Texas Red and Ex. 633 nm and Em. > 650 nm for JAS239. The Coloc 2 FIJI software plug-in was used to assess colocalization of the anti-ChoKα antibody with JAS239 by calculating Pearson's Correlation Coefficients and Manders’ Colocalization Coefficients for at least 3 separate ROIs. […]
ChoKα, sequence (P35790 whole entry): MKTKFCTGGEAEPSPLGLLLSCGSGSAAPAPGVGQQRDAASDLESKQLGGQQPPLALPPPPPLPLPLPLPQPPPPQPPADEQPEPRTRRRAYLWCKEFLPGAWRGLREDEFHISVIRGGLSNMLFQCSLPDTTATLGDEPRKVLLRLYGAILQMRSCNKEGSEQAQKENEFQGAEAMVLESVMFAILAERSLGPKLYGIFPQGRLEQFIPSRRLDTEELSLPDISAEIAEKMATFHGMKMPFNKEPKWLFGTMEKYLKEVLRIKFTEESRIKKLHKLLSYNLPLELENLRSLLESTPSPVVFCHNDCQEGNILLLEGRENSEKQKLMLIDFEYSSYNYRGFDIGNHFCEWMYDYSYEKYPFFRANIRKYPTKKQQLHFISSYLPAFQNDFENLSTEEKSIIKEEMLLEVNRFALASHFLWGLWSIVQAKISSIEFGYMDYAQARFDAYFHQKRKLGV
strongly correlated with ChoKα, unless fixed cells are pre-incubated with ChoKα antibody (Ab). (B) Manders’ Colocalization Coefficients calculated for the Texas-Red channel confirm that the majority of ChoKα is bound by JAS239 when JAS239 is present. (C) Manders’ Colocalization Coefficients calculated for the JAS239 channel indicate that the majority of JAS239 that is present intracellularly is co-distributed with ChoKα. Values represent ± SEM for 3 separate fields of view. […]

Data set [1] in a line: Blood toxicology after the 5-day treatment. The class given is in vivo. The following applies: 5 days i.p.; MN58b 2 mg/kg, JAS239 4 mg/kg. The method, then:
A cohort of 15 mice was inoculated with MDA-MB-231 cells. When a volume of 300 μL was reached, tumors were scanned using MRS. Tumor volumes were measured using T2-weighted images. The animals were separated into treatment groups, and for 5 consecutive days each group was injected i.p. with 100 μL of DMSO/saline vehicle (n = 5), 2 mg/kg MN58b (n = 4), or 4 mg/kg JAS239 (n = 3). Initial cohort sizes were 5 per condition, but some animals had to be removed from the study because the treatment was so effective that we were unable to place voxels within post-treatment tumors that were too small. Follow-up MRI/MRS scanning was performed on day 7 to assess tumor growth inhibition and changes in metabolite levels. After imaging, blood was collected into heparin-coated tubes by cardiac puncture. Resected tumors were embedded in Optimum Cryo-Temperature (Sakura Finetek), flash-frozen in liquid nitrogen, and stored at –80 °C. Blood samples were submitted to the Ryan Veterinary Clinic Diagnostic labs for toxicology.
Supplementary Figure 6: Both ChoKα inhibitors show early signs of tumor growth inhibition and apoptosis, however JAS239 is better tolerated in animals. (A) Vehicle-treated tumors increased in size during the treatment regimen, whereas the tumor volumes of MN58b and JAS239 treated mice were unchanged. […]

The next data set deals with MCF7-CK+ cells. Nature of the data set: Cell viability, Trypan blue exclusion. The class given is cell-based, human. The following applies: 17 h, ± SEM, 3 experiments. The method, then: (§1) MCF7 cells were plated for Trypan exclusion assays at 1.0 × 10^6 cells/well in 6-well plates and treated with MN58b or JAS239, synthesized in house. At 17 h, cells were collected by trypsinization, stained with Trypan Blue, and counted using a Neubauer hemocytometer. For 3-(4,5-Dimethylthiazol-2-yl)-2,5-diphenyltetrazolium bromide (MTT) assays, cells in 96-well plates (7.5 × 10^4 cells/well) were treated with JAS239 or MN58b overnight, and stained with 20 μL of 5 mg/mL MTT (Sigma-Aldrich) for 2 h, lysed with DMSO and scanned for absorbance using a SpectraMax M5 plate reader (Molecular Devices) at 550 nm, subtracting background absorbance at 690 nm from each sample.
(§2) Supplementary Figure 2: Breast cancer cell viability in response to ChoK inhibitors. (A–D) Cell viability measurements via […]
(§3) (A) or JAS239 (B). MTT assays were performed on MDA-MB-231 and 4175-Luc+ (C, D) cells exposed to MN58b (C) or JAS239 (D).
(§4) Values are reported relative to untreated control groups and represent ± SEM for 3 separate experiments. At higher JAS239 concentrations, the MTT assay was used as JAS239 interfered with Trypan blue counting. There was no overlap in absorbance readings between the MTT formazan product and JAS239.
(§5) (1 picture or pasted object on this page, not shown here)

A further data set deals with MCF7-EV cells. Nature of the data set: Cell viability, Trypan blue exclusion. The class given is cell-based, human. The following applies: 17 h, ± SEM, 3 experiments. The method, then:
as §1, §2, §3, §4, §5

Data set [2] deals with MDA-MB-231 tumor xenografts. Details: method as in PMID 16397258. The following applies: 4 mg/kg; cited from earlier work.

The source of these data is publication PMC5369982, “Near infrared fluorescent imaging of choline kinase alpha expression and inhibition in breast tumors” (Oncotarget, 2017).

The EC50 is the concentration that produces a half-maximal response. Read a low EC50 as an effect from little substance.

Consider `CC1(C)C(=C/C=C/C=C/C=C/C2=[N+](CCO)c3ccccc3C2(C)C)N(CCO)c2ccccc21` [JAS239], for which the “Tumor volume compared to control animals” value with 4175-Luc+ tumors was “significantly smaller tumor volumes”. In addition, the “JAS239 retention after ChoKα antibody pre-treatment” value at ChoKα is listed as “marked reduction in JAS239 retention”. In addition, in data set [1], the Toxicology entry is on record as “No observable or measurable toxicity”. Further, the values for the 50% effective concentration (EC50) in the data set with MCF7-CK+ cells and in the data set with MCF7-EV cells were 5.33 ± 0.84 µM and 4.04 ± 0.55 µM, respectively.

As to MN58b [reference compound], the “Tumor volume compared to control animals” value in the data set on 4175-Luc+ tumors was “significantly smaller tumor volumes”. Also, the Toxicology result in data set [1] was “elevation of blood urea nitrogen”. Also, the results for the EC50 with MCF7-CK+ cells and with MCF7-EV cells were 6.86 ± 0.43 µM and 3.29 ± 0.48 µM, respectively. The “PC levels in tumor xenografts” value in data set [2] is “lower PC levels”.
